Measured values taken from patent US4971967A, “Quinolinecarboxylic acid derivatives, antibacterial compositions and use” (Kanebo Ltd, priority 1989, dated 1990).
≈ marks a conversion by molar mass, not a printed value. Where a name gives a salt, the structure may show the parent alone. Read-outs that look alike come from different tables or passages of the source.

Experiments:
Escherichia coli KC-14 = assay: Antibacterial activity (MIC), E. coli KC-14; format: cell-based; settings: KC14; Escherichia coli KC-14, Gram -; read-out: Minimum inhibitory concentration (MIC)
Method: (§1) The compounds of the present invention (A, C, D, E, F, G, H, I, J, L, O and P) and the known compound (X) as reference were dissolved in 0.1 N aqueous sodium hydroxide to prepare a solution of 5000 μg/ml in concentration. The compounds of the present invention (B, K, M and N) and the known compound (Y) were dissolved in sterilized distilled water to prepare a solution of 5000 μg/ml in concentration. Each solution was diluted with sterilized distilled water to prepare a standard solution with a concentration of each test compound: 1000 μg/ml. The test was carried out by a method as appointed by Japan Society of Chemotherapy [cf. Chemotherapy, 29, 76-79 (1981)(TOKYO)].

[1] = test system: Bacillus subtilis ATCC 6633; assay: Antibacterial activity (MIC), Bacillus subtilis ATCC 6633; format: cell-based; settings: Bacillus subtilis, ATCC6633, Bacillus subtilis ATCC 6633, Gram +; read-out: Minimum inhibitory concentration (MIC)
Method: as §1

[2] = test system: Salmonella typhimurium IID 971; assay: Antibacterial activity (MIC), Salmonella typhimurium IID 971; format: cell-based; settings: Salmonella enterica; Salmonella typhimurium IID 971, Gram -; read-out: Minimum inhibitory concentration (MIC)
Method: as §1

[3] = test system: Enterobacter aerogenes ATCC 13048; assay: Antibacterial activity (MIC), Enterobacter aerogenes ATCC 13048; format: cell-based; settings: Klebsiella aerogenes, ATCC13048; Enterobacter aerogenes ATCC 13048, Gram -; read-out: Minimum inhibitory concentration (MIC)
Method: as §1

[4] = test system: Pseudomonas aeruginosa NCTC 10490; assay: Antibacterial activity (MIC), P. aeruginosa NCTC 10490; format: cell-based; settings: Pseudomonas aeruginosa, NCTC10490, Pseudomonas aeruginosa NCTC 10490, Gram -; read-out: Minimum inhibitory concentration (MIC)
Method: as §1

Shigella sonnei EW-33 = assay: Antibacterial activity (MIC), Shigella sonnei EW-33; format: cell-based; settings: Shigella sonnei, EW33, Shigella sonnei EW-33, Gram -; read-out: Minimum inhibitory concentration (MIC)
Method: as §1

[5] = test system: Citrobacter freundii NIHJ 10018-68; assay: Antibacterial activity (MIC), Citrobacter freundii NIHJ 10018-68; format: cell-based; settings: Citrobacter freundii, NIHJ10018, Citrobacter freundii NIHJ 10018-68, Gram -; read-out: Minimum inhibitory concentration (MIC)
Method: as §1

[6] = test system: Streptococcus faecalis IID 682; assay: Antibacterial activity (MIC), Streptococcus faecalis IID 682; format: cell-based; settings: Enterococcus faecalis, IID682, Streptococcus faecalis IID 682, Gram +; read-out: Minimum inhibitory concentration (MIC)
Method: as §1

[7] = test system: Escherichia coli NIHJ JC-2; assay: Antibacterial activity (MIC), E. coli NIHJ JC-2; format: cell-based; settings: NIHJJC2; Escherichia coli NIHJ JC-2, Gram -; read-out: Minimum inhibitory concentration (MIC)
Method: as §1

Proteus vulgaris OX-19 = assay: Antibacterial activity (MIC), Proteus vulgaris OX-19; format: cell-based; settings: OX19; Proteus vulgaris OX-19, Gram -; read-out: Minimum inhibitory concentration (MIC)
Method: as §1

[8] = test system: Serratia marcescens IAM 1184; assay: Antibacterial activity (MIC), Serratia marcescens IAM 1184; format: cell-based; settings: Serratia marcescens, IAM1184, Serratia marcescens IAM 1184, Gram -; read-out: Minimum inhibitory concentration (MIC)
Method: as §1

[9] = test system: Pseudomonas aeruginosa IFO 3445; assay: Antibacterial activity (MIC), P. aeruginosa IFO 3445; format: cell-based; settings: Pseudomonas aeruginosa, IFO3445, Pseudomonas aeruginosa IFO 3445, Gram -; read-out: Minimum inhibitory concentration (MIC)
Method: as §1

Enterobacter cloacae 963 = assay: Antibacterial activity (MIC), Enterobacter cloacae 963; format: cell-based; settings: Enterobacter cloacae, 963, Enterobacter cloacae 963, Gram -; read-out: Minimum inhibitory concentration (MIC)
Method: as §1

[10] = test system: Staphylococcus aureus FDA 209P JC-1; assay: Antibacterial activity (MIC), S. aureus FDA 209P JC-1; format: cell-based; settings: FDA209P, read-out: Minimum inhibitory concentration (MIC)
Method: as §1

[11] = test system: Acinetobacter calcoaceticus AC 54; assay: Antibacterial activity (MIC), Acinetobacter calcoaceticus AC 54; format: cell-based; settings: AC54; Acinetobacter calcoaceticus AC 54, Gram -; read-out: Minimum inhibitory concentration (MIC)
Method: as §1

[12] = test system: Micrococcus luteus ATCC 9341; assay: Antibacterial activity (MIC), Micrococcus luteus ATCC 9341; format: cell-based; settings: ATCC9341; Micrococcus luteus ATCC 9341, Gram +; read-out: Minimum inhibitory concentration (MIC)
Method: as §1

[13] = test system: Klebsiella pneumoniae PCI-602; assay: Antibacterial activity (MIC), Klebsiella pneumoniae PCI-602; format: cell-based; settings: PCI602; Klebsiella pneumoniae PCI-602, Gram -; read-out: Minimum inhibitory concentration (MIC)
Method: as §1

[14] = test system: Pseudomonas aeruginosa E-2; assay: Antibacterial activity (MIC), P. aeruginosa E-2; format: cell-based; settings: E2; Pseudomonas aeruginosa E-2, Gram -; read-out: Minimum inhibitory concentration (MIC)
Method: as §1

[15] = test system: Staphylococcus aureus IID 803; assay: Antibacterial activity (MIC), S. aureus IID 803; format: cell-based
Method: as §1

[16] = test system: Proteus mirabilis IFO 3849; assay: Antibacterial activity (MIC), Proteus mirabilis IFO 3849; format: cell-based; settings: IFO3849; Proteus mirabilis IFO 3849, Gram -; read-out: Minimum inhibitory concentration (MIC)
Method: as §1

[17] = test system: Morganella morganii IFO 3848; assay: Antibacterial activity (MIC), Morganella morganii IFO 3848; format: cell-based; settings: Morganella morganii, IFO3848, Morganella morganii IFO 3848, Gram -; read-out: Minimum inhibitory concentration (MIC)
Method: as §1

[18] = test system: Staphylococcus epidermidis IAM-1296; assay: Antibacterial activity (MIC), S. epidermidis IAM-1296; format: cell-based; settings: Staphylococcus epidermidis, IAM1296, Staphylococcus epidermidis IAM-1296, Gram +; read-out: Minimum inhibitory concentration (MIC)
Method: as §1

[19] = test system: Staphylococcus aureus IID 803; assay: Effect on treatment of general infectious disease, S. aureus IID 803 (Experiment 3); format: in vivo, ddY male mice infected with Staphylococcus aureus; settings: IID803, 168 h, oral, 1 h after i.p. infection, 5.0×10^7 CFU/mouse, survival after one week
Method: Staphylococcus aureus IID 803 (5.0×10^7 CFU/mouse)
(§2) The test microorganisms were subjected to standing culture in Trypto-Soya Agar "Nissui" (made by Nissui Seiyaku K.K., Japan) at 37° C. for 16 to 18 hours. The culture was then diluted with PBS (Dulbecco's phosphate buffered saline) and mixed with an equivalent amount of 10% (w/v) Mucin (BACTO MUCIN BACTERIOLOGICAL, made by Difco Co.) to prepare a microorganism solution. The thus prepared microorganism solution (0.5 ml each) was intraperitoneally inoculated to ddY male mice (5 weeks age, weighing 25-28 g, 5 mice in each group), to infect the animals. One hour after the infection, the compound (A) or (J) of the present invention or the known compound (X) suspended in 1% (w/v) aqueous gum arabic or the known compound (Y) dissolved in sterilized distilled water was orally adiministered to mice.
(§3) The mice were daily observed for one week, and from the survival number of mice after one week, the 50% effective dose (ED50) was calculated by Weil method.

[20] = test system: Pseudomonas aeruginosa E-2; assay: Effect on treatment of general infectious disease, P. aeruginosa E-2 (Experiment 3); format: in vivo, ddY male mice infected with Pseudomonas aeruginosa; settings: E2, 168 h, oral, 1 h after i.p. infection, 3.1×10^4 CFU/mouse, survival after one week
Method: Pseudomonas aeruginosa E-2 (3.1×10^4 CFU/mouse)
as §2, §3

[21] = test system: clinically isolated methicillin resistant Staphylococcus aureus; assay: MIC against clinically isolated methicillin resistant Staphylococcus aureus; format: cell-based; settings: 54 strains
Method: The compounds (A) and (J) of the present invention and the known compound (X) were dissolved in 0.1 N aqueous sodium hydroxide, and the known compound (Y) in sterilized distilled water, to prepare a solution of 5000 μg/ml in concentration each. The above solutions were then diluted with sterilized distilled water to prepare a standard solution with a concentration of the test compound: 1000 μg/ml each. The test was carried out by a method appointed by Japan Society of Chemotherapy (ibidem) to measure minimum inhibitory concentration (MIC) against 54 strains of clinically isolated methicillin resistant Staphylococcus aureus, from which there were calculated a range of MIC (MICrange) of the test compound against these resistant strains, a minimum concentration for inhibiting the growth of the strains by 50% (MIC50) and a minimum concentration for inhibiting the growth of the strains by 90% (MIC90).

[22] = Staphylococcus aureus FDA 209P JC-1, Gram +
[23] = IID803, Staphylococcus aureus IID 803, Gram +, read-out: Minimum inhibitory concentration (MIC)

| SMILES | MIC (Escherichia coli KC-14) [µg/mL] | MIC [1] [µg/mL] | MIC [2] [µg/mL] | MIC [3] [µg/mL] | MIC [4] [µg/mL] | MIC (Shigella sonnei EW-33) [µg/mL] | MIC [5] [µg/mL] | MIC [6] [µg/mL] | MIC [7] [µg/mL] | MIC (Proteus vulgaris OX-19) [µg/mL] | MIC [8] [µg/mL] | MIC [9] [µg/mL] | MIC (Enterobacter cloacae 963) [µg/mL] | MIC [11] [µg/mL] | MIC [12] [µg/mL] | MIC [13] [µg/mL] | MIC [14] [µg/mL] | MIC [16] [µg/mL] | MIC [17] [µg/mL] | MIC [18] [µg/mL] | other results |
| --- | --- | --- | --- | --- | --- | --- | --- | --- | --- | --- | --- | --- | --- | --- | --- | --- | --- | --- | --- | --- | --- |
| CN1Cc2csc3c(C(=O)O)c(=O)c4cc(F)c(N5CCN(O)CC5)c1c4n23 [Compound (L), 9,1-(Methylimino)methano-7-fluoro-8-(4-hydroxy-1-piperazinyl)-5-oxo-5H-thiazolo[3,2-a]quinoline-4-carboxylic acid] | 0.1 (≈ 0.247 µM) | 0.0125 (≈ 0.0309 µM) | 0.1 (≈ 0.247 µM) | 0.1 (≈ 0.247 µM) | 0.39 (≈ 0.964 µM) | 0.05 (≈ 0.124 µM) | 0.39 (≈ 0.964 µM) | 0.1 (≈ 0.247 µM) | 0.1 (≈ 0.247 µM) | 0.0125 (≈ 0.0309 µM) | 0.78 (≈ 1.93 µM) | 0.78 (≈ 1.93 µM) | 0.1 (≈ 0.247 µM) | 0.025 (≈ 0.0618 µM) | 0.78 (≈ 1.93 µM) | 0.006 (≈ 0.0148 µM) | 0.78 (≈ 1.93 µM) | 0.2 (≈ 0.495 µM) | 0.1 (≈ 0.247 µM) | 0.1 (≈ 0.247 µM) | MIC ([10]; Staphylococcus aureus): 0.05 µg/mL (≈ 0.124 µM); MIC ([15]; Staphylococcus aureus, IID803, read-out: Minimum inhibitory concentration (MIC)): 0.05 µg/mL (≈ 0.124 µM) |
| CCNCC1CCN(c2c(F)cc3c(=O)c(C(=O)O)c4scc5n4c3c2N(C)C5)C1 (stereo not drawn) [Compound (M), 9,1-(Methylimino)methano-7-fluoro-8-(3-ethylaminomethyl-1-pyrrolidinyl)-5-oxo-5H-thiazolo[3,2-a]quinoline-4-carboxylic acid hydrochloride] | 0.1 | 0.0125 | 0.1 | 0.1 | 0.39 | 0.05 | 0.78 | 0.05 | 0.1 | 0.05 | 0.78 | 1.56 | 0.2 | 0.05 | 0.2 | 0.006 | 1.56 | 0.39 | 0.2 | 0.05 | MIC [10, 22]: 0.025 µg/mL; MIC [15, 23]: 0.0125 µg/mL |
| CNCC1CCN(c2c(F)cc3c(=O)c(C(=O)O)c4scc5n4c3c2N(C)C5)C1 (stereo not drawn) [Compound (N), 9,1-(Methylimino)methano-7-fluoro-8-(3-methylaminomethyl-1-pyrrolidinyl)-5-oxo-5H-thiazolo[3,2-a]quinoline-4-carboxylic acid hydrochloride] | 0.05 | 0.025 | 0.1 | 0.2 | 0.39 | 0.05 | 0.78 | 0.05 | 0.1 | 0.05 | 0.78 | 0.78 | 0.1 | 0.05 | 0.2 | 0.0125 | 0.78 | 0.39 | 0.2 | 0.05 | MIC [10, 22]: 0.025 µg/mL; MIC [15, 23]: 0.0125 µg/mL |
| CC1COc2c(N3CCN(C)CC3)c(F)cc3c(=O)c(C(=O)O)cn1c23 (stereo not drawn) [Compound (X), 9-Fluoro-3-methyl-10-(4-methyl-1-piperazinyl)-7-oxo-2,3-dihydro-7H-pyrido[1,2,3-de][1,4]-benzoxazine-6-carboxylic acid, reference compound] | 0.1 (≈ 0.277 µM) | 0.1 (≈ 0.277 µM) | 0.05 (≈ 0.138 µM) | 0.1 (≈ 0.277 µM) | 1.56 (≈ 4.32 µM) | 0.05 (≈ 0.138 µM) | 0.39 (≈ 1.08 µM) | 1.56 (≈ 4.32 µM) | 0.1 (≈ 0.277 µM) | 0.05 (≈ 0.138 µM) | 0.78 (≈ 2.16 µM) | 1.56 (≈ 4.32 µM) | 0.2 (≈ 0.553 µM) | 0.39 (≈ 1.08 µM) | 3.13 (≈ 8.66 µM) | 0.05 (≈ 0.138 µM) | 1.56 (≈ 4.32 µM) | 0.39 (≈ 1.08 µM) | 0.1 (≈ 0.277 µM) | 0.78 (≈ 2.16 µM) | ED50 [19]: 14 mg/kg; ED50 [20]: 14 mg/kg; MIC [10, 22]: 0.39 µg/mL (≈ 1.08 µM); MIC [21]: 0.39 to 1.56 µg/mL (≈ 1.08 to 4.32 µM); MIC50 ([21]; minimum concentration for inhibiting growth of the strains by 50%): 0.78 µg/mL (≈ 2.16 µM); MIC90 ([21]; minimum concentration for inhibiting growth of the strains by 90%): 1.56 µg/mL (≈ 4.32 µM); MIC [15, 23]: 0.39 µg/mL (≈ 1.08 µM) |
